Where “and” joins values, the source holds several entries; their conditions need not be identical. Identical values can stand only once.
Legend:
Wolbachia pipientis = test: Anti-Wolbachia Cell-Based Screen; format: functional; conditions: for IC50: Wolbachia pipientis
[1] = microbe, parasite or virus in culture; conditions: Mycobacterium tuberculosis, 72 h, read-out: pIC50 (converted)
[2] = microbe, parasite or virus in culture; conditions: Mycobacterium tuberculosis, 96 h, read-out: pIC50 (converted)
Schistosoma mansoni = test: High throughput screening of compounds against Schistosoma mansoni motility; format: functional; parameters: dose or concentration left out as unconfirmed
Histidine--tRNA ligase = molecular target: T1, Histidine--tRNA ligase (Leishmania infantum, UniProt A4I591); test: Leishmania infantum Histidine tRNA synthetase (LdHisRS); format: functional
T1 sequence (A4I591 whole entry): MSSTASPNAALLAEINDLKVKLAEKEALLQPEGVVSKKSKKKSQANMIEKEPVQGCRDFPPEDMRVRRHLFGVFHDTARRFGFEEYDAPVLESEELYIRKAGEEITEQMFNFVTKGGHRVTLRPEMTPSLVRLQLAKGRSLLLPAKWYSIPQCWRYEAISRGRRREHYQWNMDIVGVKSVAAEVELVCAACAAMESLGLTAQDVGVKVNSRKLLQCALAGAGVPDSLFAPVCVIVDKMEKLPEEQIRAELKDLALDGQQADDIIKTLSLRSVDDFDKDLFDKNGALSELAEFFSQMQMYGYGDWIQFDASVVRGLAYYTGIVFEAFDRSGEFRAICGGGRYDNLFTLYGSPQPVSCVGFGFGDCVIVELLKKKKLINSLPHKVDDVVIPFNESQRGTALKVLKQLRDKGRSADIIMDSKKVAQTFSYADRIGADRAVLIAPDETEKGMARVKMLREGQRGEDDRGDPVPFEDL

Which IC50 (Wolbachia pipientis) does the source give for `CCc1cc(C(=O)N2CCC3(CCCN(CC4CC4)C3=O)C2)cs1` (centres undefined) here?
The IC50 was over 10 µM.

With `CCc1nc(N)nc(N2CCCC3(CCN(C)CC3)CC2)c1C` as the molecule, how does the IC50 (Wolbachia pipientis) read?
The IC50 was over 10 µM.

What does the source list for `CNc1cc(C)nc(N2Cc3cnn(Cc4ccc(F)cc4)c3C2)n1`?
IC50 [1]: 33.6 µM; pIC50 (Wolbachia pipientis): 6.156; IC50 (Wolbachia pipientis): 0.556 µM; IC50 [2]: 24.2 µM

Which IC50 (Wolbachia pipientis) does the source give for `CC(C)N1CC(NC(=O)c2ccc(Cl)s2)CC1=O` (centres undefined) here?
The IC50 was over 10 µM.

With `O=C1CC(c2ccc3ccccc3n2)c2c(n[nH]c2C2CCC2)N1` (centres undefined) as the molecule, how does the IC50 (Wolbachia pipientis) read?
Its IC50 is over 10 µM.

What does the source list for `Cc1csc(CN(C)c2cc(C)nc3c(C)c(C)nn23)n1`?
IC50 [1]: 37.9 µM; pIC50 (Wolbachia pipientis): 5.234; IC50 (Wolbachia pipientis): 6.27 µM; IC50 [2]: 25.5 µM

For `CNc1ncc(CN(C)c2ncnc3onc(C)c23)cn1`, which IC50 (Wolbachia pipientis) is on record?
Its IC50 is over 10 µM.

With `CN(CCc1ccccc1)Cc1cc(C(=O)N2CCN(C)C(=O)C2)no1` as the molecule, how does the IC50 (Wolbachia pipientis) read?
The IC50 was over 10 µM.

For `CN(Cc1ccc(F)cc1)CC1(O)CCCN(CC(C)(C)C)C1=O` (centres undefined), which “Percent Effect” value (Schistosoma mansoni) is on record?
Its value is 7.085%.

And the IC50 (Wolbachia pipientis)?
The IC50 was over 10 µM.

With `CSCC[C@H](N)C(=O)NCc1cc2n(n1)CCCN(C(=O)C1CCC1)C2` as the molecule, how does the “Percent Effect” value (Schistosoma mansoni) read?
Its value is -28.36%.

What about the IC50 (Wolbachia pipientis) of the same molecule?
The IC50 was over 10 µM.

With `CCCS(=O)(=O)N1CCN(c2cc(-n3nc(C)cc3C)nc(C)n2)CC1` as the molecule, how does the IC50 (Wolbachia pipientis) read?
The IC50 was over 10 µM.

Which IC50 (Wolbachia pipientis) does the source give for `CCOCCCn1c(NC(=O)c2cnc(C)s2)nc2ccccc21` here?
The IC50 was over 10 µM.

Which IC50 (Wolbachia pipientis) does the source give for `Cc1cc(NC(=O)NCC(O)c2ccc(F)c(F)c2)n(C)n1` (centres undefined) here?
The IC50 was over 10 µM.

With `c1cnnc(N2CCCC2CNCc2csc(-c3ccco3)n2)c1` (centres undefined) as the molecule, how does the IC50 (Wolbachia pipientis) read?
Its IC50 is over 10 µM.

Which IC50 (Wolbachia pipientis) does the source give for `c1ccc(-c2nc(CN3CCCC3Cn3cncn3)no2)cc1` (centres undefined) here?
The IC50 was over 10 µM.

For `Cc1ccccc1CNC(=O)Cn1nc(-c2ccc(F)cc2)oc1=O`, which IC50 (Wolbachia pipientis) is on record?
The IC50 was over 10 µM.

Which IC50 (Wolbachia pipientis) does the source give for `Cc1nn(C)c(C)c1C(=O)NCc1ccnc(OCC(F)(F)F)c1` here?
The IC50 was over 10 µM.

For `COc1cc(CNC(=O)c2c(C)noc2C)ccn1`, which IC50 (Wolbachia pipientis) is on record?
Its IC50 is over 10 µM.

Which IC50 (Wolbachia pipientis) does the source give for `CC(=O)N1CCN(C(=O)CCn2c(C)nc3ccccc3c2=O)CC1` here?
The IC50 was over 10 µM.

With `O=C(NCCCn1cncn1)N1CCCCCC1` as the molecule, how does the IC50 (Wolbachia pipientis) read?
Its IC50 is over 10 µM.

With `CC(C(=O)N1CCCN(Cc2ccc(C#N)cc2)CC1)n1cncn1` (centres undefined) as the molecule, how does the IC50 (Wolbachia pipientis) read?
The IC50 was over 10 µM.

For `CC(C(=O)N1CCCN(Cc2cnn(C)c2)CC1)n1ccnc1` (centres undefined), which IC50 (Wolbachia pipientis) is on record?
The IC50 was over 10 µM.

For `Cc1cc(NC(=O)CN2CCn3c(nnc3C3CC3)C2)on1`, which IC50 (Wolbachia pipientis) is on record?
Its IC50 is over 10 µM.

For `O=C(CCc1ccccc1Cl)NS(=O)(=O)c1ccc2c(c1)OCCO2`, which IC50 (Wolbachia pipientis) is on record?
The IC50 was over 10 µM.

With `CCNc1cc2c(nn1)CCN(C(=O)c1ccnc(C)n1)C2` as the molecule, how does the IC50 (Histidine--tRNA ligase) read?
Its IC50 is 58.6 µM and 51.7 µM.

What about the IC50 (Wolbachia pipientis) of the same molecule?
Its IC50 is over 10 µM.

Which IC50 (Wolbachia pipientis) does the source give for `Cc1cc(C)n(CC2CCCN2C(=O)CCc2ccco2)n1` (centres undefined) here?
Its IC50 is over 10 µM.

Which IC50 (Wolbachia pipientis) does the source give for `CN1CCC/C1=N\S(=O)(=O)c1ccc(NC(=O)c2ccc(Cl)s2)cc1` here?
The IC50 was over 10 µM.

For `O=C(CCc1ccc(Cl)s1)N1CCC(N2CCNC2=O)CC1`, which IC50 (Wolbachia pipientis) is on record?
The IC50 was over 10 µM.

For `Cc1cnn(CC2CCCCN2C(=O)c2ccc(CN(C)C)cc2)c1` (centres undefined), which IC50 (Wolbachia pipientis) is on record?
Its IC50 is over 10 µM.

With `Cc1ccc(-c2nc(CN3CCn4c(C)nnc4C3)cs2)o1` as the molecule, how does the IC50 (Wolbachia pipientis) read?
Its IC50 is over 10 µM.

Which IC50 (Wolbachia pipientis) does the source give for `CC(C)C(C(=O)N1CCCN(Cc2nccn2C)CC1)N1CCCC1` (centres undefined) here?
Its IC50 is over 10 µM.

Which IC50 (Wolbachia pipientis) does the source give for `CC(=O)N(Cc1noc(C2CC2)n1)C1CCN(Cc2cccnc2)C1` (centres undefined) here?
Its IC50 is over 10 µM.

Which IC50 (Wolbachia pipientis) does the source give for `CCC(CC)C(O)CNC(=O)Nc1cc(C)nn1C` (centres undefined) here?
Its IC50 is over 10 µM.

With `CCOc1ncccc1C(=O)N1CCCC1c1c(C)nn(C)c1OC` (centres undefined) as the molecule, how does the IC50 (Wolbachia pipientis) read?
Its IC50 is over 10 µM.

With `N#Cc1ccc(N2CCCC3(CCN(c4cccnc4)CC3)C2)cc1.O=C(O)C(F)(F)F` as the molecule, how does the IC50 (Histidine--tRNA ligase) read?
The IC50 was 24.6 µM and 24.2 µM.

What about the pIC50 (Wolbachia pipientis) of the same molecule?
The pIC50 was 6.279 and 5.873.

For `CO[C@@H]1CCN(c2nnc(C)s2)C[C@@H]1Cc1cccc(C)c1.O=C(O)C(F)(F)F`, which IC50 [1] is on record?
The IC50 was 41.6 µM.

And the pIC50 (Wolbachia pipientis)?
Its pIC50 is 5.813.

What about the IC50 (Wolbachia pipientis) of the same molecule?
The IC50 was 1.57 µM.

What about the IC50 [2] of the same molecule?
Its IC50 is 16.3 µM.

For `CO[C@@H]1CCN(c2nnc(C)s2)C[C@@H]1Cc1ccccc1.O=C(O)C(F)(F)F`, which IC50 [1] is on record?
The IC50 was 11.3 µM.

And the pIC50 (Wolbachia pipientis)?
The pIC50 was 6.169.

And the IC50 (Wolbachia pipientis)?
The IC50 was 0.958 µM.

And the IC50 [2]?
The IC50 was 7.95 µM.

For `CO[C@H]1CCN(c2nnc(C)s2)C[C@@H]1Cc1ccccc1.O=C(O)C(F)(F)F`, which IC50 [1] is on record?
Its IC50 is 40.3 µM.

What about the pIC50 (Wolbachia pipientis) of the same molecule?
The pIC50 was 5.449.

What about the IC50 (Wolbachia pipientis) of the same molecule?
Its IC50 is 3.77 µM.

And the IC50 [2]?
The IC50 was 15.7 µM.

Which IC50 [1] does the source give for `COc1ccc(C[C@H]2CN(c3nnc(C)s3)CC[C@H]2OC)cc1.O=C(O)C(F)(F)F` here?
Its IC50 is 16.3 µM.

What about the pIC50 (Wolbachia pipientis) of the same molecule?
Its pIC50 is 6.226.

And the IC50 (Wolbachia pipientis)?
The IC50 was 0.462 µM.

And the IC50 [2]?
The IC50 was 16.4 µM.

For `CO[C@H]1CCN(c2nnc(C)s2)C[C@@H]1Cc1cccc(C)c1.O=C(O)C(F)(F)F`, which IC50 [1] is on record?
Its IC50 is 41.7 µM.

What about the pIC50 (Wolbachia pipientis) of the same molecule?
Its pIC50 is 5.267.

What about the IC50 (Wolbachia pipientis) of the same molecule?
The IC50 was 3.74 µM.

What about the IC50 [2] of the same molecule?
The IC50 was 16.7 µM.

With `Cc1ccc(CN2CCn3c(CNC(=O)c4cccn4C)cnc3C2)s1` as the molecule, how does the IC50 (Histidine--tRNA ligase) read?
Its IC50 is 64.8 µM and 62.5 µM.

What about the IC50 (Wolbachia pipientis) of the same molecule?
The IC50 was over 10 µM.

Which IC50 (Histidine--tRNA ligase) does the source give for `O=C(O)C(F)(F)F.c1cc(-c2ccc3c(c2)CCC32CCN(c3nncs3)CC2)ccn1` here?
The IC50 was 19.6 µM and 24.9 µM.

What about the pIC50 (Wolbachia pipientis) of the same molecule?
Its pIC50 is 5.133.

What about the IC50 (Wolbachia pipientis) of the same molecule?
Its IC50 is 5.68 µM.

For `O=C(O)C(F)(F)F.O=C(O)C(F)(F)F.c1cncc(-c2ccc3c(c2)CCC32CCN(Cc3ccco3)CC2)c1`, which IC50 [1] is on record?
Its IC50 is 20.5 µM.

What about the pIC50 (Wolbachia pipientis) of the same molecule?
Its pIC50 is 6.473.

What about the IC50 (Wolbachia pipientis) of the same molecule?
Its IC50 is 0.404 µM.

What about the IC50 [2] of the same molecule?
The IC50 was 28.7 µM.

Reference: ChEMBL document CHEMBL3988442, “University of Dundee, Small-Polar-MMV Screening Library” (2021)
